This passage reports IC50 results from patent US20220388964A1 (HiberCell, Inc., priority 2019, published 2022).

The experiment addresses GCN2 (Homo sapiens, UniProt Q9P2K8). The experiment is described as follows: TR-FRET biochemical assay for inhibition of GCN2 (Example 106, for Example 1-4BB).

SMILES strings stand for the structures.

Chain of GCN2 (Q9P2K8 whole entry): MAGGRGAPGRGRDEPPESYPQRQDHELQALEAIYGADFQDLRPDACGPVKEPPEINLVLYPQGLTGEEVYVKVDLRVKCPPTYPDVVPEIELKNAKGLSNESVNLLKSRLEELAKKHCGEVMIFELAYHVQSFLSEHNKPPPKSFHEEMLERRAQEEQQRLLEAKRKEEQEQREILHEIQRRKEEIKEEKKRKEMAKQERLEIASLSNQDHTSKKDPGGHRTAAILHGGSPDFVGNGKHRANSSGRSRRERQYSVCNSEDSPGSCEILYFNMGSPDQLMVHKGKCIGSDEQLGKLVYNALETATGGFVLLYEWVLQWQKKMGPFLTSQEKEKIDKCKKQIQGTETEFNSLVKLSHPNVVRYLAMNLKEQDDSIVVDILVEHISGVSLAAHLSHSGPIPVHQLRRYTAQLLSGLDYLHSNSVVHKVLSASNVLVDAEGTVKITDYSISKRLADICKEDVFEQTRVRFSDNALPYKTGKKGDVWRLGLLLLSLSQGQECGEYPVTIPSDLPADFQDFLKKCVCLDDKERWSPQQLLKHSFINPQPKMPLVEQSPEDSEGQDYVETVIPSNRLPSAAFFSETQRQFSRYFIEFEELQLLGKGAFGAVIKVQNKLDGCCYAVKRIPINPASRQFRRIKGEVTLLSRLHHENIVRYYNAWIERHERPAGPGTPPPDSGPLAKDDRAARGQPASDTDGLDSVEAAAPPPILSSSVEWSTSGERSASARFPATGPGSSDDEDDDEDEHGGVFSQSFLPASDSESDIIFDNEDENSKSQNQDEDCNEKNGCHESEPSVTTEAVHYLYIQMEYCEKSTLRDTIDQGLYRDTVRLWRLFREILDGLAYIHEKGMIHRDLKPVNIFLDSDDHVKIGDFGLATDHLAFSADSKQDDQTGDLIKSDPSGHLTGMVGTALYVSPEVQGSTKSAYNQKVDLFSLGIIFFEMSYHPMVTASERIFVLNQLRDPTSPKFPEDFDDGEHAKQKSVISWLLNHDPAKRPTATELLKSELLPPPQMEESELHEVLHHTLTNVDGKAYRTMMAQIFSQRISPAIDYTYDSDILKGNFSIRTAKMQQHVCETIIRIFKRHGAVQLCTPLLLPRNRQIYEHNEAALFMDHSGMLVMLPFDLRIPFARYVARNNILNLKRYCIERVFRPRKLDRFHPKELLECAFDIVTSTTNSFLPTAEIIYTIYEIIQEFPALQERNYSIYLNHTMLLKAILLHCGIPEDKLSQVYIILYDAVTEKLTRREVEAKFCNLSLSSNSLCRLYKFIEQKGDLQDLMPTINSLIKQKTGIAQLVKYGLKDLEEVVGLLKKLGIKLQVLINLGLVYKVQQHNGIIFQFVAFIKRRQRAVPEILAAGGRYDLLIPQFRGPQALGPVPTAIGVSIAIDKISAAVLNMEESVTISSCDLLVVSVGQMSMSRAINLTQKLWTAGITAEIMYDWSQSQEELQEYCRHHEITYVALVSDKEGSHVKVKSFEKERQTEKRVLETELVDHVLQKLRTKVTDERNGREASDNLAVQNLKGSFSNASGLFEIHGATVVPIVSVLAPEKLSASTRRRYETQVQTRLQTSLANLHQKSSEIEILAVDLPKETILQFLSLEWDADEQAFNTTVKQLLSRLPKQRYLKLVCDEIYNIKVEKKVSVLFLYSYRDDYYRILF

`COc1cccc(S(=O)(=O)Nc2ccc(F)c(-c3ccc4c(-c5ncc[nH]5)n[nH]c4c3F)c2F)c1` [Example 2F, N-(2,4-difluoro-3-(7-fluoro-3-(1H-imidazol-2-yl)-1H-indazol-6-yl)phenyl)-3-methoxy-benzene-sulfonamide] came in with an IC50 (Table 8) of under 500 nM.

Take `COc1ncc(Cl)cc1S(=O)(=O)Nc1ccc(F)c(-c2ccc3c(-c4cnn[nH]4)n[nH]c3c2F)c1F` [Example 4AN]: where the note is “Table 9”, the IC50 was under 500 nM. As to `COc1ncc(F)cc1S(=O)(=O)Nc1ccc(C#N)c(-c2ccc3c(C(=O)NCCCO)n[nH]c3c2F)c1F` [Example 3CA, 6-(6-cyano-2-fluoro-3-((5-fluoro-2-methoxypyridine)-3-sulfonamido)phenyl)-7-fluoro-N-(3-hydroxypropyl)-1H-indazole-3-carboxamide], the IC50 (Table 9) was under 500 nM.

Where the note is “Table 8”, `O=S(=O)(Nc1ccc(F)c(-c2ccc3c(-c4ncc[nH]4)n[nH]c3c2F)c1F)c1ccc(Cl)cc1Cl` [Example 2BN, 2,4-dichloro-N-(2,4-difluoro-3-(7-fluoro-3-(1H-imidazol-2-yl)-1H-indazol-6-yl)phenyl)-benzenesulfonamide] came in with an IC50 of under 500 nM. Still for that read-out and setting: next, `COc1cccc(S(=O)(=O)Nc2ccc(F)c(-c3ccc4c(-c5ncc[nH]5)n[nH]c4c3F)c2F)c1C` [Example 2AR, N-(2,4-difluoro-3-(7-fluoro-3-(1H-imidazol-2-yl)-1H-indazol-6-yl)phenyl)-3-methoxy-2-methylbenzene-sulfonamide]: 500 to 2500 nM. For the setting “Table 9”, `COc1ncc(C#N)cc1S(=O)(=O)Nc1ccc(F)c(-c2ccc3c(C(N)=O)n[nH]c3c2F)c1F` [Example 3CY, 6-(3-((5-cyano-2-methoxy-pyridine)-3-sulfonamido)-2,6-difluorophenyl)-7-fluoro-1H-indazole-3-carboxamide] returned an IC50 of 500 to 2500 nM. For `COc1ncc(F)cc1S(=O)(=O)Nc1ccc(F)c(-c2ccc3c(C(=O)NCC[C@H](O)CO)n[nH]c3c2F)c1F` [Example 3BE, 6-(2,6-difluoro-3-((5-fluoro-2-methoxypyridine)-3-sulfonamido)phenyl)-N-((S)-3,4-dihydroxybutyl)-7-fluoro-1H-indazole-3-carboxamide], for the setting “Table 9”, the IC50 is under 500 nM. Compound `Cn1cc(S(=O)(=O)Nc2ccc(F)c(-c3ccc4c(-c5ncc[nH]5)n[nH]c4c3F)c2F)c(Cl)n1` [Example 2H, 3-chloro-N-(2,4-difluoro-3-(7-fluoro-3-(1H-imidazol-2-yl)-1H-indazol-6-yl)phenyl)-1-methyl-1H-pyrazole-4-sulfonamide] had an IC50 (Table 8) of 500 to 2500 nM. As for `COc1ncc(F)cc1S(=O)(=O)Nc1cccc(-c2ccc3c(-c4nc(CO)c[nH]4)n[nH]c3c2F)c1F` [Example 13, 5-Fluoro-N-(2-fluoro-3-(7-fluoro-3-(4-(hydroxymethyl)-1H-imidazol-2-yl)-1H-indazol-6-yl)phenyl)-2-methoxypyridine-3-sulfonamide], under “Table 9”, the IC50 is under 500 nM. Compound `COc1ncccc1S(=O)(=O)Nc1ccc(F)c(-c2ccc3c(-c4ncc[nH]4)n[nH]c3c2F)c1F` [Example 2U, N-(2,4-difluoro-3-(7-fluoro-3-(1H-imidazol-2-yl)-1H-indazol-6-yl)phenyl)-2-methoxy-pyridine-3-sulfonamide] gave an IC50 (Table 8) of under 500 nM. Consider `COc1ncc(F)cc1S(=O)(=O)Nc1ccc(F)c(-c2ccc3c(C(=O)NCCNC(C)=O)n[nH]c3c2F)c1F` [Example 23, N-(2-Acetamidoethyl)-6-(2,6-difluoro-3-((5-fluoro-2-methoxypyridine)-3-sulfonamido)phenyl)-7-fluoro-1H-indazole-3-carboxamide], for which, for the setting “Table 9”, the IC50 was in the range of 500 to 2500 nM. Where the note is “Table 9”, `Cc1ncc(F)cc1S(=O)(=O)Nc1ncc(F)c(-c2ccc3c(-c4ncc[nH]4)n[nH]c3c2F)c1F` [Example 3F, N-(3,5-difluoro-4-(7-fluoro-3-(1H-imidazol-2-yl)-1H-indazol-6-yl)pyridin-2-yl)-5-fluoro-2-methylpyridine-3-sulfonamide] gave an IC50 of under 500 nM. With `Cc1ccc(S(=O)(=O)Nc2ccc(F)c(-c3ccc4c(-c5ncc[nH]5)n[nH]c4c3F)c2F)cc1` [Example 1, N-(2,4-difluoro-3-(7-fluoro-3-(1H-imidazol-2-yl)-1H-indazol-6-yl)phenyl)-4-methylbenzenesulfonamide], for the setting “Table 8”, the IC50 was in the range of 500 to 2500 nM. Still for that read-out and setting: for `COc1ncc(Cl)cc1S(=O)(=O)Nc1ccc(F)c(-c2ccc3c(C(N)=O)n[nH]c3c2F)c1F` [Example 2Z, 6-(3-((5-chloro-2-methoxy-pyridine)-3-sulfonamido)-2,6-difluorophenyl)-7-fluoro-1H-indazole-3-carboxamide] the value was under 500 nM.

In turn, `COc1ncc(F)cc1S(=O)(=O)Nc1ccc(F)c(-c2ccc3c(-c4nc(C#N)c[nH]4)n[nH]c3c2F)c1F` [Example 19, N-(3-(3-(4-Cyano-1H-imidazol-2-yl)-7-fluoro-1H-indazol-6-yl)-2,4-difluorophenyl)-5-fluoro-2-methoxypyridine-3-sulfonamide] gave an IC50 (Table 9) of under 500 nM. Compound `NC1CCc2c1cc(F)cc2S(=O)(=O)Nc1ccc(F)c(-c2ccc3c(-c4ncc[nH]4)n[nH]c3c2F)c1F` (stereo not shown) [Example 4AO] registered an IC50 (Table 9) of over 10000 nM.

Under “Table 9”, `O=S(=O)(Nc1ncc(F)c(-c2ccc3c(-c4ncc[nH]4)n[nH]c3c2F)c1F)c1cc(F)ccc1F` [Example 3H, N-(3,5-difIuoro-4-(7-fluoro-3-(1H-imidazol-2-yl)-1H-indazol-6-yl)pyridin-2-yl)-2,5-difluorobenzene-sulfonamide] returned an IC50 of under 500 nM. On the same count and under the same terms, next, `COc1ncc(CO)cc1S(=O)(=O)Nc1ccc(F)c(-c2ccc3c(C(N)=O)n[nH]c3c2F)c1F` [Example 3DE, 6-(2,6-difluoro-3-((5-(hydroxylmethyl)-2-methoxy-pyridine)-3-sulfonamido)-phenyl)-7-fluoro-1H-indazole-3-carboxamide]: 2500 to 10000 nM; `COc1ncc(F)cc1S(=O)(=O)Nc1cc(F)cc(-c2ccc3c(C(=O)NCCCN(C)C)n[nH]c3c2F)c1F` [Example 3BK, 6-(3-((5-fluoro-2-methoxy-pyridine)-3-sulfonamido)-2,5-difluorophenyl)-N-(3-(dimethylamino)propyl)-7-fluoro-1H-indazole-3-carboxamide]: under 500 nM; `Cc1ccc(S(=O)(=O)Nc2ccc(F)c(-c3ccc4c(C(=O)Nc5cnn(C)c5)n[nH]c4c3F)c2F)c(C)n1` [Example 3DH, 6-(3-((2,6-dimethylpyridine)-3-sulfonamido)-2,6-difluoro-phenyl)-7-fluoro-N-(1-methyl-1H-pyrazol-4-yl)-1H-indazole-3-carboxamide]: under 500 nM. On to `O=S(=O)(Nc1ccc(F)c(-c2ccc3c(-c4ncc[nH]4)n[nH]c3c2F)c1F)c1ccccc1F` [Example 2BT, N-(2,4-difluoro-3-(7-fluoro-3-(1H-imidazol-2-yl)-1H-indazol-6-yl)phenyl)-2-fluorobenzenesulfonamide], for which the IC50 (Table 8) was under 500 nM.

Compound `COc1ncc(F)cc1S(=O)(=O)Nc1ccc(F)c(-c2ccc3c(C(=O)NCCCO)n[nH]c3c2F)c1F` [Example 3R, 6-(2,6-difluoro-3-((5-fluoro-2-methoxypyridine)-3-sulfonamido)phenyl)-7-fluoro-N-(3-hydroxypropyl)-1H-indazole-3-carboxamide] displayed an IC50 (Table 9) of under 500 nM. The compound `O=S(=O)(Nc1ccc(F)c(-c2ccc3c(-c4ncc[nH]4)n[nH]c3c2F)c1F)c1cccc(CO)c1` [Example 3, N-(2,4-Difluoro-3-(7-fluoro-3-(1H-imidazol-2-yl)-1H-indazol-6-yl)phenyl)-3-(hydroxymethyl)benzenesulfonamide] showed an IC50 (Table 8) of under 500 nM. `COc1ncc(CO)cc1S(=O)(=O)Nc1ccc(F)c(-c2ccc3c(C(=O)NCCCO)n[nH]c3c2F)c1F` [Example 3CN, 6-(2,6-difluoro-3-((5-(hydroxylmethyl)-2-methoxy-pyridine)-3-sulfonamido)-phenyl)-7-fluoro-N-(3-hydroxypropyl)-1H-indazole-3-carboxamide] yielded an IC50 (Table 9) of 2500 to 10000 nM.

`O=S(=O)(Nc1ccc(F)c(-c2ccc3c(-c4ncc[nH]4)n[nH]c3c2F)c1F)c1cccc(O)c1F` [Example 2AQ, N-(2,4-difluoro-3-(7-fluoro-3-(1H-imidazol-2-yl)-1H-indazol-6-yl)phenyl)-2-fluoro-3-hydroxybenzene-sulfonamide] displayed an IC50 (Table 8) of under 500 nM.

Consider `Cc1nn(C(F)F)cc1S(=O)(=O)Nc1ccc(F)c(-c2ccc3c(-c4ncc[nH]4)n[nH]c3c2F)c1F` [Example 2BU, N-(2,4-difluoro-3-(7-fluoro-3-(1H-imidazol-2-yl)-1H-indazol-6-yl)phenyl)-1-(difluoromethyl)-3-methyl-1H-pyrazole-4-sulfonamide], for which the IC50 (Table 8) was under 500 nM. The same measure, in the same setting: next, `COc1ccc(Cl)c(S(=O)(=O)Nc2ccc(F)c(-c3ccc4c(-c5ncc[nH]5)n[nH]c4c3F)c2F)c1` [Example 2BA, 2-chloro-N-(2,4-difluoro-3-(7-fluoro-3-(1H-imidazol-2-yl)-1H-indazol-6-yl)phenyl)-5-methoxybenzene-sulfonamide]: under 500 nM.

As for `COc1ncc(C#N)cc1S(=O)(=O)Nc1cc(F)cc(-c2ccc3c(C(=O)NCCCO)n[nH]c3c2F)c1F` [Example 3DP, 6-(3-((5-cyano-2-methoxy-pyridine)-3-sulfonamido)-2,5-difluorophenyl)-7-fluoro-N-(3-hydroxypropyl)-1H-indazole-3-carboxamide], the IC50 (Table 9) was under 500 nM.

In the case of `Cc1ncc(F)cc1S(=O)(=O)Nc1cccc(-c2ccc3c(-c4ncc[nH]4)n[nH]c3c2C)c1F` [Example 3Y, N-(3-(3-(1H-imidazol-2-yl)-7-methyl-1H-indazol-6-yl)-2-fluorophenyl)-5-fluoro-2-methylpyridine-3-sulfonamide], the concentration for half-maximal inhibition (IC50) (Table 9) lay in the range of 500 to 2500 nM. The compound `COc1ncccc1S(=O)(=O)Nc1cccc(-c2ccc3c(-c4ncc[nH]4)n[nH]c3c2F)c1F` [Example 3W, N-(2-fluoro-3-(7-fluoro-3-(1H-imidazol-2-yl)-1H-indazol-6-yl)phenyl)-2-methoxypyridine-3-sulfonamide] gave an IC50 (Table 9) of under 500 nM. For the setting “Table 9”, `O=S(=O)(Nc1ccc(F)c(-c2ccc3c(-c4ccccc4)n[nH]c3c2)c1F)c1cc(F)ccc1F` [Example 10, N-(2,4-Difluoro-3-(3-phenyl-1H-indazol-6-yl)phenyl)-2,5-difluorobenzenesulfonamide] registered an IC50 of 2500 to 10000 nM.
